In ChEMBL document CHEMBL3885861, “Open TG-GATES”:

Organism: Rattus norvegicus
Test: Open TG-GATES - Regimen: Daily Repeat
Assay type: toxicity, organism-based, Sprague-Dawley
Set-up: regimen Daily Repeat, gender Male, age 6 weeks
Settings: in vivo, iv, route intravenous injection; for gamma-GTP / A/G / ALP / ALT / AST / BUN / CRE / Ca / Cl / DBIL / GLC / IP / K / LDH / Na / PL / RALB / TBIL / TC / TG / TP: tissue Plasma; for APTT / Bas / Eos / Fbg / Hb / Ht / Lym / MCH / MCHC / MCV / Mono / Neu / PT / Plat / RBC / Ret / WBC: tissue Blood; for KIDNEY_L / KIDNEY_R / KIDNEY_TOTAL: tissue Kidney; for LIVER: tissue Liver
[1] = 4 mg/kg, […], dose level Low, time 14 day
[2] = 4 mg/kg, […], dose level Low, time 28 day
[3] = 12 mg/kg, 72 h, dose level Middle, time 3 day
[4] = 12 mg/kg, […], dose level Middle, time 7 day
[5] = 12 mg/kg, […], dose level Middle, time 14 day
[6] = 12 mg/kg, […], dose level Middle, time 28 day

`CN(C)c1ncnc2c1ncn2[C@@H]1O[C@H](CO)[C@@H](N)[C@H]1O` [PUROMYCIN AMINONUCLEOSIDE] was tested, and the gamma-GTP (4 mg/kg, […], dose level Low, time 7 day) was 1.6 IU/L, the A/G [1] was 1.1 and the ALP [1] was 1081.2 IU/L. For the same compound, the ALT [1] was 35.8 IU/L, the AST [1] was 64.2 IU/L and the BUN [1] was 19.2 mg/dL. For the same compound, the CRE [1] was 0.2 mg/dL, the Ca [1] was 10.9 mg/dL and the Cl [1] was 106.8 meq/L. It also gave a DBIL [1] of 0 mg/dL, a GLC [1] of 179.4 mg/dL and an IP [1] of 6.8 mg/dL. For the same compound, the K [1] was 4.2 meq/L, the LDH [1] was 141.2 IU/L and the Na [1] was 142.8 meq/L. For the same compound, the PL [1] was 143.4 mg/dL, the RALB [1] was 2.9 g/dL and the TBIL [1] was 0.002 mg/dL. The TC [1] was 76.8 mg/dL, the TG [1] was 129.2 mg/dL and the TP [1] was 5.5 g/dL. It also gave a gamma-GTP [1] of 1.4 IU/L, an A/G [2] of 0.7 and an ALP [2] of 666.2 IU/L. The ALT [2] was 34.6 IU/L, the AST [2] was 47 IU/L and the BUN [2] was 17.2 mg/dL. It also gave a CRE [2] of 0.2 mg/dL, a Ca [2] of 10.4 mg/dL and a Cl [2] of 104.2 meq/L. For the same compound, the DBIL [2] was 0 mg/dL, the GLC [2] was 181.8 mg/dL and the IP [2] was 6.8 mg/dL. It also gave a K [2] of 4.3 meq/L, an LDH [2] of 134 IU/L and a Na [2] of 142.4 meq/L. The PL [2] was 334 mg/dL, the RALB [2] was 2.2 g/dL and the TBIL [2] was 0.006 mg/dL. For the same compound, the TC [2] was 203.8 mg/dL, the TG [2] was 254.2 mg/dL and the TP [2] was 5.4 g/dL. The gamma-GTP [2] was 1.2 IU/L, the TERMINAL_BW [3] was 221.5 g and the APTT [3] was 20.8 s. It also gave a Bas [3] of 0%, an Eos [3] of 1% and a Fbg [3] of 305.2 mg/dL. The Hb [3] was 13.2 g/dL, the Ht [3] was 38.5% and the Lym [3] was 86.2%. It also gave an MCH [3] of 21 pg, an MCHC [3] of 34.2% and an MCV [3] of 61.4 fL. It also gave a Mono [3] of 2%, a Neu [3] of 9.8% and a PT [3] of 16 s. For the same compound, the Plat [3] was 119.7 x10_4/uL, the RBC [3] was 626.8 x10_4/ul and the Ret [3] was 4.3%. It also gave a WBC [3] of 80.4 x10_2/uL, a KIDNEY_L [3] of 0.9 g and a KIDNEY_R [3] of 1 g. For the same compound, the KIDNEY_TOTAL [3] was 1.9 g, the LIVER [3] was 9.9 g and the A/G [3] was 1.3. The ALP [3] was 1198.8 IU/L, the ALT [3] was 39.4 IU/L and the AST [3] was 69.4 IU/L. It also gave a BUN [3] of 20.8 mg/dL, a CRE [3] of 0.2 mg/dL and a Ca [3] of 11.2 mg/dL. For the same compound, the Cl [3] was 104.6 meq/L, the DBIL [3] was 0 mg/dL and the GLC [3] was 174.4 mg/dL. For the same compound, the IP [3] was 8.2 mg/dL, the K [3] was 4.4 meq/L and the LDH [3] was 145.6 IU/L. The Na [3] was 141.2 meq/L, the PL [3] was 133 mg/dL and the RALB [3] was 3 g/dL. It also gave a TBIL [3] of 0.016 mg/dL, a TC [3] of 66.6 mg/dL and a TG [3] of 67.4 mg/dL. The TP [3] was 5.4 g/dL, the gamma-GTP [3] was 1.8 IU/L and the TERMINAL_BW [4] was 243.7 g. For the same compound, the TERMINAL_BW [5] was 292.3 g, the TERMINAL_BW [6] was 237.1 g and the APTT [4] was 21 s. For the same compound, the Bas [4] was 0%, the Eos [4] was 1% and the Fbg [4] was 304.2 mg/dL. The Hb [4] was 13.5 g/dL, the Ht [4] was 38.5% and the Lym [4] was 74.4%. The MCH [4] was 20.6 pg, the MCHC [4] was 35% and the MCV [4] was 58.9 fL. For the same compound, the Mono [4] was 2.6%, the Neu [4] was 21.6% and the PT [4] was 15.8 s. It also gave a Plat [4] of 107.5 x10_4/uL, an RBC [4] of 653.8 x10_4/ul and a Ret [4] of 3.3%. It also gave a WBC [4] of 93.9 x10_2/uL, an APTT [5] of 18.6 s and a Bas [5] of 0%. The Eos [5] was 0.8%, the Fbg [5] was 561 mg/dL and the Hb [5] was 13.1 g/dL. It also gave a Ht [5] of 35.4%, a Lym [5] of 78.2% and an MCH [5] of 20.3 pg. For the same compound, the MCHC [5] was 36.9%, the MCV [5] was 55.1 fL and the Mono [5] was 2.8%. It also gave a Neu [5] of 17%, a PT [5] of 13.1 s and a Plat [5] of 181.7 x10_4/uL. For the same compound, the RBC [5] was 641.8 x10_4/ul, the Ret [5] was 1.3% and the WBC [5] was 140.4 x10_2/uL. It also gave an APTT [6] of 15.1 s, a Bas [6] of 0% and an Eos [6] of 0.5%. For the same compound, the Fbg [6] was 627 mg/dL, the Hb [6] was 9.5 g/dL and the Ht [6] was 23.8%. It also gave a Lym [6] of 60.8%, an MCH [6] of 18.8 pg and an MCHC [6] of 40%. For the same compound, the MCV [6] was 46.9 fL, the Mono [6] was 5.2% and the Neu [6] was 32%. It also gave a PT [6] of 15.2 s, a Plat [6] of 137.6 x10_4/uL and an RBC [6] of 498.2 x10_4/ul. For the same compound, the Ret [6] was 0.5%, the WBC [6] was 106.1 x10_2/uL and the KIDNEY_L [4] was 1 g. It also gave a KIDNEY_R [4] of 1 g, a KIDNEY_TOTAL [4] of 2 g and a KIDNEY_L [5] of 1.6 g. It also gave a KIDNEY_R [5] of 1.6 g, a KIDNEY_TOTAL [5] of 3.2 g and a KIDNEY_L [6] of 2.3 g. For the same compound, the KIDNEY_R [6] was 2.3 g, the KIDNEY_TOTAL [6] was 4.6 g and the LIVER [4] was 10.4 g.
